Measurements taken from patent US10987327B2, “Method for preventing or treating autism spectrum disorders by benzoic acid salt” (EXCELSIOR PHARMATECH LABS, priority 2017, dated 2021).
Several values for one entry are separate records, joined by “and”; a condition that tells them apart may be missing. Identical values can stand only once. Entries after “also recorded” stand apart in the source; their conditions may differ.

How the values were obtained:
children with ASD [1] = assay: Adaptive Behavior Assessment System-II (ABAS-II), 12-week open label trial; format: in vivo, human; conditions: sodium benzoate 250 to 500 mg/day, 12 weeks, c2-c7 = child A-F
Procedure: (§1) Six children with ASD were treated with 250 to 500 mg/day of sodium benzoate for 12 weeks. At the baseline and the final (12 weeks) visit, the assessments of receptive and expressive vocabulary test (REVT), core vocabularies gained in the core vocabulary communication system, Chinese child developmental inventory, adaptive behavior assessment system-II (ABAS-II), parenting stress index (PSI), clinical global impression-improvement scale (CGI-I) were arranged.
(§2) This study was a twelve-week open label trial with the aim of gaining experience with sodium benzoate for the treatment of non-communicative children with ASDs. The participants were a convenient sample of outpatients children recruited from the Department of Pediatrics, Kaohsiung Medical University Hospital, Taiwan.
(§3) Six children, including five boys and 1 child with ages between 3-year-7-month to 9-year-10-month old, were assigned to receive a 12-week treatment of sodium benzoate. For children with a body weight equal or more than 15 kg, benzoate was given with 500 mg/day. […]
The ABAS-II is an individually administered, norm-referenced measure of adaptive behaviors (Harrison and Oakland, 2003). […] A Global Adaptive Composite (GAC) score is calculated from all nine skill area scores and presented as a norm-referenced standard score. Results were recorded by the pre- and post-GAC score and Social score.

children with ASD [2] = assay: Parenting Stress Index-Chinese version (PSI), 12-week open label trial; format: in vivo, human; conditions: sodium benzoate 250 to 500 mg/day, 12 weeks; * = above 85 percentile; c2-c7 = child A-F; Pre-Tx A-F: 70, 97.5, 99, 99, 69, 50
Procedure: as §1, §2
as §3, with “mg/day. For children with a body weight less than 15 kg, benzoate was given with 250 mg/day.” for “mg/day.”
Primary caregiver filled out the Chinese version of the parenting stress index (Wen, 2003) which was a validated Chinese version of the original questionnaire developed by Abdin (Abidin, 1986) that measured aspects of parental functioning. […]

children with ASD [3] = assay: Clinical Global Impression-Improvement Scale (CGI-I) and clinicians' conclusion, 12-week open label trial; format: in vivo, human; conditions: for Clinicians' conclusion on improvement of the individual child (text): after 12 weeks, b64-b69 = child A-F in order
Procedure: as §1, §2
(§4) Six children, including five boys and 1 child with ages between 3-year-7-month to 9-year-10-month old, were assigned to receive a 12-week treatment of sodium benzoate. For children with a body weight equal or more than 15 kg, benzoate was given with 500 mg/day. For children with a body weight less than 15 kg, benzoate was given with 250 mg/day. Sodium benzoate was provided by Excelsior Pharmatech Labs (Taiwan).
(§5) All the children entering this study also started to receive communication training using the Core Vocabulary Communication System—Chinese version (the Unlimiter Assistive Technology Engineering Lab, Taiwan). Parents were required to teach their children 40 minutes per day at home using this System. During the 12-week period, the parents were required to bring children back the hospital every 2 weeks. At the baseline and the final (12 weeks) visit, the following assessments were arranged.
The CGI-I is an observer-rated scale that measures the global improvement of illness as compared to condition at admission to the trial (Guy, 1976).

children with ASD [4] = assay: Safety observations (activity level, sleep) in the 12-week open label trial; format: in vivo, human; conditions: for Sleep: child C first 3 days of benzoate usage, child D, child E; for Activity level (untoward activating effect): child D at final assessment, child E in the first two weeks, returned to baseline one month later
Excerpt: The present disclosure examined the efficacy and safety of sodium benzoate, a D-amino acid oxidase inhibitor, for the treatment of an autism spectrum disorder.
as §2, §4, §5

[5] = system: early-phase Alzheimer disease; conditions: prior trial; cited from earlier work
schizophrenia = conditions: prior trial; cited from earlier work

In the case of `O=C([O-])c1ccccc1.[Na+]` [sodium benzoate], the “ABAS-S: Parental reported Social Score, Post-Tx” value (children with ASD [1]; Pre-Tx A-F: 71, 51, 57, 61, 46, 45) was 77 and 51 and 50 and 44 and 46 and 45, the “ABAS-GCS: Parental reported General Adaptive Composite Score, Post-Tx” value (children with ASD [1]; Pre-Tx A-F: 77, 60, 47, 53, 50, 58) was 77 and 61 and 46 and 49 and 53 and 57 and the “PSI % (parenting stress index, derived raw-to-percentile score), Post-Tx” value (children with ASD [2]) was 62% and 93* % and 99* % and 99.9* % and 75% and 72%. For the same compound, the “Clinicians' conclusion on improvement of the individual child (text)” value (children with ASD [3]) was “much improved; also recorded: no improvement; also recorded: minimally improved”, the “Clinicians' conclusion on improvement of the individual child (text)” value (children with ASD [3]; listed as benzoate) was “minimal improvement” and the “Overall effect in teaching of communication skill as observed by the parents and clinicians” value (children with ASD [3]; six children, 12 weeks) was “beneficial effects”. The “Participants judged to be much improved” value (children with ASD [3]; six children, 12 weeks, child A, B, E) was “Half of the participants”, the “CGI: Clinical Global Impression-Improvement” value (children with ASD [3]; sodium benzoate 250 to 500 mg/day, 12 weeks, c2-c7 = child A-F) was “much ((2) much improved); also recorded: mini-; also recorded: nil ((4) no change)” and the Sleep (children with ASD [4]) was “sleep pattern was unaltered”. For the same compound, the Sleep (children with ASD [4]; listed as benzoate) was “not able to fall asleep at their usual sleep time”, the “Activity level (untoward activating effect)” value (children with ASD [4]) was “activity level became even higher; also recorded: activity level increased” and the “Activity level (untoward activating effect)” value (children with ASD [4]; listed as benzoic acid salt) was “untoward activating effect”. The “Clinical symptoms, neurocognitive ability and quality of life” value [5] was “Significant improvements” and the “Clinical symptoms, neurocognitive ability and quality of life” value (schizophrenia) was “Significant improvements”.
